Laboratory results published in patent US8557527B2 (HistoRx, Inc., priority 2008, dated 2013).

How the values were obtained:
GBM = assay: Clinical outcome of RT+Gefitinib (RTOG 0211, Array 19) versus RT alone (historical, Array 8) patients stratified by AQUA biomarker level
[1] = tested on: Newly Diagnosed Glioblastoma (GBM); conditions: Gefitinib+Radiation vs historical controls; cited from earlier work
[2] = tested on: chronic myelogenous leukemia and gastrointestinal stromal tumors; conditions: patients with chronic myelogenous leukemia and gastrointestinal stromal tumors; cited from earlier work

COc1cc2ncnc(Nc3ccc(F)c(Cl)c3)c2cc1OCCCN1CCOCC1 [Gefitinib]
overall survival, RTOG 0211 versus historical controls (RT alone) (GBM; patients with elevated ratio of cytoplasmic to nuclear pAKT): improved overall survival
overall survival times, Gefitinib+RT versus RT only (GBM; patients with intermediate-to-high levels of Src expression): significantly worse overall survival times
clinical outcome, RT+Gefitinib versus RT alone (GBM; patients with lower levels of PTEN expression, p=0.08): trend towards improved outcome
survival compared to historical controls [1]: survival was not significantly improved

Cc1ccc(NC(=O)c2ccc(CN3CCN(C)CC3)cc2)cc1Nc1nccc(-c2cccnc2)n1 [STI-571]
efficacy as therapy [2]: highly effective
toxicity as therapy [2]: non-toxic
